Data taken from ChEMBL document CHEMBL5370568, “Discovery of Coixol Derivatives as Potent Anti-inflammatory Agents” (J Nat Prod, 2023).
Calls of active or inactive are those of the source. The rule behind the calls is not given here.

Columns and labels:
RAW264.7 [1] = test: Antiinflammatory activity in LPS-induced mouse RAW264.7 cells assessed as inhibition of NO production at 20 uM pretreated for 1 hr followed by LPS stimulation and measured after 24 hrs by griess reagent based assay relative to control; type: functional; settings: time 25 hrs
[2] = Cytotoxicity against mouse RAW264.7 cells incubated for 24 hrs by MTT assay; type: toxicity, cell-based
RAW264.7 [3] = test: Antiinflammatory activity in LPS-induced mouse RAW264.7 cells assessed as inhibition of NO production pretreated for 1 hr followed by LPS stimulation and measured after 24 hrs by griess reagent based assay; type: functional, cell-based
HEK-293T = test: Inhibition of NO production in HEK293T cells expressing iNOS assessed as effect on iNOS dimerization at 0.1 to 10 uM measured after 24 hrs by griess reagent based assay; type: functional, cell-based; settings: Homo sapiens, dose 0.1-10 µM
RAW264.7 [4] = test: Antiinflammatory activity in LPS-induced mouse RAW264.7 cells assessed as inhibition of NO production by measuring downregulation of iNOS protein expression at 2 to 8 uM pretreated for 2 hr followed by LPS stimulation and measured after 24 hrs by Western blot analysis; type: functional, cell-based; settings: dose 2-8 µM, time 26.0 hrs
RAW264.7 [5] = test: Inhibition of NFkappaB signaling pathway in LPS-induced mouse RAW264.7 cells assessed as reduction in IkappaBalpha phosphorylation pretreated for 2 hrs followed by LPS stimulation and measured after 10 mins by Western blot analysis; type: cell-based; settings: dose 0.5-2 µM, time 130.0 min
[6] = Inhibition of TNF-alpha production in LPS-induced mouse RAW264.7 cells pretreated for 1 hr followed by LPS stimulation and measured after 24 hrs by ELISA; type: functional, cell-based
[7] = Inhibition of IL-6 production in LPS-induced mouse RAW264.7 cells pretreated for 1 hr followed by LPS stimulation and measured after 24 hrs by ELISA; type: functional, cell-based
[8] = Inhibition of IL-1beta production in LPS-induced mouse RAW264.7 cells pretreated for 1 hr followed by LPS stimulation and measured after 24 hrs by ELISA; type: functional, cell-based
Mus musculus [9] = test: Antiinflammatory activity in ICR mouse model of xylene-induced auricle edema assessed as average weight of left ear at 20 mg/kg, IG pretreated for 1 hr followed by xylene addition and measured after 1 hr (reference value: 6.9 +/- 0.7 mg); type: functional; settings: time 2 hrs
Mus musculus [10] = test: Antiinflammatory activity in ICR mouse model of xylene-induced auricle edema assessed as average weight of left ear at 40 mg/kg, IG pretreated for 1 hr followed by xylene addition and measured after 1 hr (reference value: 6.9 +/- 0.7 mg); type: functional; settings: time 2 hrs
Mus musculus [11] = test: Antiinflammatory activity in ICR mouse model of xylene-induced auricle edema assessed as average weight of right ear at 20 mg/kg, IG pretreated for 1 hr followed by xylene addition and measured after 1 hr (reference value: 11.5 +/- 2.1 mg); type: functional; settings: time 2 hrs
Mus musculus [12] = test: Antiinflammatory activity in ICR mouse model of xylene-induced auricle edema assessed as average weight of right ear at 40 mg/kg, IG pretreated for 1 hr followed by xylene addition and measured after 1 hr (reference value: 11.5 +/- 2.1 mg); type: functional; settings: time 2 hrs
Mus musculus [13] = test: Antiinflammatory activity in ICR mouse model of xylene-induced auricle edema assessed as swelling degree at 20 mg/kg, IG pretreated for 1 hr followed by xylene addition and measured after 1 hr (reference value: 4.6 +/- 2 mg); type: functional; settings: time 2 hrs
Mus musculus [14] = test: Antiinflammatory activity in ICR mouse model of xylene-induced auricle edema assessed as swelling degree at 40 mg/kg, IG pretreated for 1 hr followed by xylene addition and measured after 1 hr (reference value: 4.6 +/- 2 mg); type: functional; settings: time 2 hrs
Mus musculus [15] = test: Antiinflammatory activity in ICR mouse model of xylene-induced auricle edema assessed as inhibition rate of ear swelling at 20 mg/kg, IG pretreated for 1 hr followed by xylene addition and measured after 1 hr relative to control; type: functional; settings: po, time 2 hrs
Mus musculus [16] = test: Antiinflammatory activity in ICR mouse model of xylene-induced auricle edema assessed as inhibition rate of ear swelling at 40 mg/kg, IG pretreated for 1 hr followed by xylene addition and measured after 1 hr relative to control; type: functional; settings: po, time 2 hrs
RAW264.7 [17] = test: Antiinflammatory activity in LPS-induced mouse RAW264.7 cells assessed as inhibition of NO production by measuring downregulation of iNOS protein expression at 0.5 to 10 uM pretreated for 2 hr followed by LPS stimulation and measured after 24 hrs by Western blot analysis; type: functional, cell-based; settings: dose 0.5-10 µM, time 26.0 hrs
RAW264.7 [18] = test: Antiinflammatory activity in LPS-induced mouse RAW264.7 cells assessed as inhibition of NO production incubated for 24 hrs in presence of LPS by griess reagent based assay; type: functional, cell-based; settings: RAW264.7, 24 h
[19] = Inhibition of TNF-alpha production in LPS-induced mouse RAW264.7 cells incubated for 24 hrs in presence of LPS by ELISA; type: functional, cell-based; settings: RAW264.7, 24 h
[20] = Inhibition of IL-6 production in LPS-induced mouse RAW264.7 cells incubated for 24 hrs in presence of LPS by ELISA; type: functional, cell-based; settings: RAW264.7, 24 h
[21] = Inhibition of IL-1beta production in LPS-induced mouse RAW264.7 cells incubated for 24 hrs in presence of LPS by ELISA; type: functional, cell-based; settings: RAW264.7, 24 h
Mus musculus [22] = test: Antiinflammatory activity in ICR mouse model of xylene-induced ear edema assessed as edema inhibition rate at 25 mg/kg, po pretreated for 1 hr followed by xylene addition and measured after 0.5 hr relative to control; type: functional; settings: time 1.5 hrs

SMILES | inhibition at 20 µM (RAW264.7 [1]) | IC50 at 24 h [2] | other results
COc1ccc2c(c1)oc(=O)n2CCNC(=O)/C=C/c1ccc(OC)c(OC)c1 | 8.9% | > 100 µM | –
COc1ccc2c(c1)oc(=O)n2CCNC(=O)/C=C/c1ccc([N+](=O)[O-])o1 | 105% | 38.8 µM | IC50 (RAW264.7 [3]): 0.8 µM; inhibition (HEK-293T): inactive; Activity (RAW264.7 [4]): Active; inhibition (RAW264.7 [5]): Dose-Dependent Effect; IC50 [6]: 10.9 µM; IC50 [7]: 10.3 µM; IC50 [8]: 11.8 µM; Activity (Mus musculus [9]): 7.2 mg; Activity (Mus musculus [10]): 8.5 mg; Activity (Mus musculus [11]): 9.7 mg; Activity (Mus musculus [12]): 10.5 mg; Activity (Mus musculus [13]): 2.4 mg; Activity (Mus musculus [14]): 2 mg; inhibition in vivo at 20 mg/kg (Mus musculus [15]): 47.1%; inhibition in vivo at 40 mg/kg (Mus musculus [16]): 56.6%
COc1ccc2c(c1)oc(=O)n2CCNC(=O)/C=C/c1cc2ccccc2o1 | 35.1% | > 100 µM | –
COc1ccc2c(c1)oc(=O)n2CCNC(=O)/C=C/c1ccco1 | 88.4% | > 100 µM | IC50 (RAW264.7 [3]): 2.4 µM; inhibition (HEK-293T): inactive; Activity (RAW264.7 [17]): Active; IC50 [6]: 7.5 µM; IC50 [7]: 8.8 µM; IC50 [8]: 11.6 µM; Activity (Mus musculus [9]): 9.5 mg; Activity (Mus musculus [10]): 8.1 mg; Activity (Mus musculus [11]): 12.7 mg; Activity (Mus musculus [12]): 11 mg; Activity (Mus musculus [13]): 3.2 mg; Activity (Mus musculus [14]): 3 mg; inhibition in vivo at 20 mg/kg (Mus musculus [15]): 30.9%; inhibition in vivo at 40 mg/kg (Mus musculus [16]): 35.3%
O=C(/C=C/c1ccco1)NCCn1c(=O)oc2ccccc21 | 63.2% | > 100 µM | –
COc1ccc2c(c1)oc(=O)n2CCNC(=O)/C=C/c1cccc(Cl)c1 | 5.2% | > 100 µM | –
COc1ccc2c(c1)oc(=O)n2CCNC(=O)/C=C/c1ccc(C)cc1 | 30.2% | > 100 µM | –
COc1ccc2c(c1)oc(=O)n2CCNC(=O)/C=C/c1ccccc1OC | 6.4% | 80.2 µM | –
COc1ccc(C(C)=O)c(OCCNC(=O)/C=C/c2cc(OC)c(OC)c(OC)c2)c1 | 88.8% | – | –
COc1ccc2c(c1)oc(=O)n2CCNC(=O)/C=C/c1ccccc1Cl | 10.7% | > 100 µM | –
COc1ccc2c(c1)oc(=O)n2CCNC(=O)/C=C/c1cccs1 | 36.1% | > 100 µM | –
COc1ccc2c(c1)oc(=O)n2CCNC(=O)/C=C/c1ccoc1 | 30.3% | > 100 µM | –
COc1cccc(/C=C/C(=O)NCCn2c(=O)oc3cc(OC)ccc32)c1 | 9.3% | > 100 µM | –
COc1ccc2c(c1)oc(=O)n2CCNC(=O)/C=C/c1ccccc1 | 30.2% | > 100 µM | –
COc1ccc2c(c1)oc(=O)n2CCNC(=O)/C=C/c1ccc(O)cc1 | 45.4% | 59 µM | –
COc1ccc2[nH]c(=O)oc2c1 [COIXOL] | 7.4% | > 100 µM | IC50 [6]: 31.2 µM; IC50 [7]: 48.9 µM; IC50 [8]: 66.4 µM
COc1ccc2c(c1)oc(=O)n2CCNC(=O)c1ccco1 | 29.4% | > 100 µM | –
COc1ccc2oc(=O)n(CCNC(=O)/C=C/c3ccco3)c2c1 | 56.2% | > 100 µM | –
COc1ccc2c(c1)oc(=O)n2CCNC(=O)/C=C/c1ccc(F)cc1 | 4.4% | > 100 µM | –
COc1ccc2c(c1)oc(=O)n2CCNC(=O)/C=C/c1ccccn1 | 42.8% | > 100 µM | –
COc1ccc2c(c1)oc(=O)n2CCNC(=O)/C=C/c1cc(OC)c(OC)c(OC)c1 | 51.1% | > 100 µM | IC50 (RAW264.7 [3]): 26 µM
COc1ccc2c(c1)oc(=O)n2CCNC(=O)/C=C/c1ccc(O)c(OC)c1 | 7.2% | > 100 µM | –
COc1ccc(/C=C/C(=O)NCCn2c(=O)oc3cc(OC)ccc32)cc1 | 45.9% | 68.8 µM | –
Cc1ccc(-c2cc(C(F)(F)F)nn2-c2ccc(S(N)(=O)=O)cc2)cc1 [CELECOXIB] | 62.4% | – | IC50 (RAW264.7 [3]): 21.1 µM; IC50 [6]: 12.2 µM; IC50 [7]: 13.7 µM; IC50 [8]: 14.6 µM; Activity (Mus musculus [9]): 8.3 mg; Activity (Mus musculus [11]): 11.6 mg; Activity (Mus musculus [13]): 3.4 mg; inhibition in vivo at 20 mg/kg (Mus musculus [15]): 27.4%; IC50 (RAW264.7 [18]): 17.9 µM; IC50 [19]: 41.2 µM; IC50 [20]: 36 µM; IC50 [21]: 17.9 µM; inhibition in vivo at 25 mg/kg (Mus musculus [22]): 30.9%
COc1ccc2c(c1)oc(=O)n2CCNC(=O)/C=C/c1ccc(Cl)cc1 | 38.3% | > 100 µM | –
O=C(/C=C/c1ccco1)NCCn1c(=O)oc2cc(Br)ccc21 | 75.3% | 68.9 µM | –
COc1ccc2c(c1)oc(=O)n2CCNC(=O)/C=C/c1ccc(C)o1 | 43.2% | > 100 µM | –
COc1ccc2c(c1)oc(=O)n2CCNC(=O)/C=C/c1ccc(C(F)(F)F)cc1 | 42% | 69.5 µM | –
COc1ccc2c(c1)oc(=O)n2CCNC(=O)/C=C/c1ccc(Br)o1 | 25.8% | > 100 µM | –
